Experimental data as given in US5670509A, “Tocolytic oxytocin receptor antagonists” (priority 1995, dated 1997).
Read-outs that look alike come from different tables or passages of the source. One block for each compound: values may come before it.

What was measured:
premature labor = settings: compared with ritodrine; cited from earlier work
uterine OT receptors = target: T1, uterine OT receptors (Rattus norvegicus, UniProt P70536); test: Radioligand binding assay: competition of [3H]oxytocin binding to a crude membrane preparation of uteri from DES-treated rats; settings: 1 nM [3H]OT; 60 minutes; 22° C.; pH 7.4; rat uterus membranes
T1 construct: from tissue; host or cells: rat uterus (DES-treated), crude membrane preparation
T1 sequence (P70536 1-388): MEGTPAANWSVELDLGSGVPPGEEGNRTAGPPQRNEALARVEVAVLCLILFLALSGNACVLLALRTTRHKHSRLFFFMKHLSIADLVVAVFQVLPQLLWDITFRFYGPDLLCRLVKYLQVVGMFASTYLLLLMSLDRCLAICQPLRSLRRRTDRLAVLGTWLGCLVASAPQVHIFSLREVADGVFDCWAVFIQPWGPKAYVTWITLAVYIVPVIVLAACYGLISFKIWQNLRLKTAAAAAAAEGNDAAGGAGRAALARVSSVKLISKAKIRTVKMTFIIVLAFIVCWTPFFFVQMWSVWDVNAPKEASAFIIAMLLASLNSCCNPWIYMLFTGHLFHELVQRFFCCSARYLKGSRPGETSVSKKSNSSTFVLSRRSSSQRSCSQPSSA
Description: The high affinity binding of [^3 H] Oxytocin (OT)([tyrosyl, 3,5-[^3 H]OT; 30-60 Ci/mmol; New England Nuclear. Boston, Mass.) to uterine OT receptors was based on an assay (Fuchs, A-R; Fuchs, F; Soloff, MS. 1985 J. Clin. Endocrinol. Metab. 60:37) using a crude membrane preparation of uteri taken from diethylstilbestrol dipropionate (DES)-treated (0.3 mg/kg, ip; 18-24) rats. Competition studies were conducted at equilibrium (60 minutes; 22° C.) using 1 nM[^3 H]OT in the following assay buffer: 50 mM Tris-HCl, 5 mM MgCl2, and 0.1% BSA, pH 7.4. Nonspecific binding (10% of the total binding) was determined using 1 μM unlabeled OT and the binding reaction was terminated by filtration through glass fiber filters using a cell harvester (model 7019, Skatron, Inc., Sterling, Va.). IC50 (the concentration of tested compound that inhibits 50% of OT) was reported, unless otherwise noted.
IC50 values were determined for both [^3 H]OT and [^3 H]AVP binding assays by linear regression of the relation log concentration of compound vs. percent inhibition of specific binding.

[1] = cited from earlier work

SMILES: CCO [Ethanol]
effectiveness in preventing premature labor (in words) (premature labor): as effective as ritodrine in preventing premature labor
reduction in the incidence of fetal respiratory distress (in words) (premature labor): does not produce a corresponding reduction in the incidence of fetal respiratory distress that administration of ritodrine does

IC50 (uterine OT receptors): 3700 nM
SMILES: O=C(Cc1ccc2c(c1)OCO2)N1CCC2(C=Cc3ccccc32)CC1 [Example 10]

IC50 (uterine OT receptors): 150 nM
SMILES: O=C(Nc1ccc(CC(=O)N2CCC3(C=Cc4ccccc43)CC2)cc1)c1ccc2[nH]cnc2c1 [Example 12]

IC50 (uterine OT receptors): 170 nM
SMILES: O=C(CCc1c[nH]cn1)Nc1ccc(CC(=O)N2CCC3(CCc4ccccc43)CC2)cc1 [Example 14]

IC50 (uterine OT receptors): 310 nM
SMILES: O=C(Nc1ccc(CC(=O)N2CCC3(C=Cc4ccccc43)CC2)cc1)c1ccc2[nH]ccc2c1 [Example 15]

IC50 (uterine OT receptors): 520 nM
SMILES: O=C(Nc1ccc(CC(=O)N2CCC3(C=Cc4ccccc43)CC2)cc1)c1ccc2[nH]nnc2c1 [Example 16]

SMILES: O=S(=O)([O-])[O-].[Mg+2] [Magnesium sulfate]
toxicity at plasma concentrations above the therapeutic range (in words) ([1]; above 4 to 8 mg/dL plasma): can cause inhibition of cardiac conduction and neuromuscular transmission, respiratory depression and cardiac arrest
therapeutic range of plasma concentrations ([1]; plasma): 4 to 8 mg/dL

SMILES: CC(NCCc1ccc(O)cc1)C(O)c1ccc(O)cc1 (stereo not drawn) [Ritodrine]
side effects (in words) ([1]; tocolytic use, in the mother): causes a number of cardiovascular and metabolic side effects in the mother, including tachycardia, increased renin secretion, hyperglycemia (and reactive hypoglycemia in the infant)

SMILES: CC(C)(C)NCC(O)c1ccc(O)c(CO)c1 (stereo not drawn) [albuterol]
side effects (in words) ([1]; in vivo): side effects similar to those of ritodrine

SMILES: CC(C)(C)NCC(O)c1cc(O)cc(O)c1 (stereo not drawn) [terbutaline]
side effects (in words) ([1]; tocolytic use, in the mother): side effects similar to those of ritodrine
